Experimental findings from patent US20240325539A1, “METHODS AND COMPOSITIONS FOR TREATING EPSTEIN BARR VIRUS-ASSOCIATED CANCER” (The Chancellor, Masters and Scholars of the University of …, priority 2020, published 2024) are described below.

For series [1], the system named is AGS-EBV cells. Nature of the series: Killing of AGS-EBV cells by Zta-specific TCR-T cells (IncuCyte, Cytotox Red). It is filed as cell-based, human. Conditions: for cell death of AGS-EBV cells: HDACi pre-treatment, then primary T cells expressing TCR4, after 8 h of co-culture, compared to DMSO. As for the experimental part:
EBV+GC cells were treated with either 2.5 μM of CXD101, 5 μM of chidamide, or 5 μM of SAHA, and DMSO was used as a negative control. Approximately 10×10^5 AGS-EBV cells were plated in […] the day before treatment to allow 50% confluence. The next day, the media was removed, and the cells were treated for 48 hours with the HDACi or DMSO. After 48 hours, the cells were dissociated with trypsin-EDTA and counted. The dissociated cells were plated in the wells of a flat-bottomed 96-well plate and left to adhere for 4-6 hours before the addition of Zta-specific T cells. The IncuCyte S3 Live-Cell analysis system was used to analyze the interactions between the T cells and the HDACi-treated gastric cells over a period of 24 hours. The cells were cultured at an E:T ratio of 10:1. The IncuCyte® Cytotox Red Reagent for counting dead cells was added to each well at the start of incubation. The treated AGS-EBV cells were co-cultured with the HLA-A*02:01-restricted TCR4 primary T cell clones and the HLA-mismatched control clone, TCR9. After 24 hours of incubation, the supernatant was removed from the wells for quantification of cytokines. The ability of the clones to kill the target cells was assessed using the automated IncuCyte analysis software. The Cytotox Red apoptosis marker that was added to the wells at the start of co-culture was taken up by dead cells, and the overlap area of this red fluorescence with larger, very bright GFP cells was measured in μm^2 per replicate well at each set time point.

Series [2] has as its system AGS-EBV cells. Nature of the series: RT-qPCR of EBV lytic genes. It is filed as cell-based, human. The source says: RNA was extracted from cells using the RNeasy Mini Kit (Qiagen), following the manufacturer's instructions. Possible contamination with genomic DNA was removed by treatment with DNase I according to the manufacturer's instructions. One μg was used to generate cDNA using the SuperScript Reverse Transcriptase III System following the manufacturer's instructions. QuantiTect SYBR Green PCR Kit was used to perform RT-qPCR using the StepOnePlus real-time PCR system (Applied Biosystems). Reactions were performed in duplicate and in a final volume of 20 μL. Relative mRNA abundances were normalized to endogenous glyceraldehyde 3-phosphate dehydrogenase (GAPDH) mRNA levels. Shown qPCR results were analyzed by the ΔΔCt-method, with the threshold cycles being determined by the Applied Biosystems software.

Series [3] relates to YCCEL1 cells. Nature of the series: Western blot for Zta and total acetylation of histone 3. It is filed as cell-based, human. As to conditions: FIGS. 1C and 9D (YCCEL1; SNU719). As for the experimental part:
(§1) Protein concentration was determined by the Bradford assay.

Series [4] concerns AGS-EBV cells. Nature of the series: Zta expression (immunofluorescence and Western blot). As to conditions: for Zta expression: 5 μM SAHA, 5 μM chidamide, 2.5 μM CXD101. The format is cell-based, human. As for the experimental part:
as §1

The test system of series [5] is Burkitt lymphoma cell lines Namalwa, Raji, and Akata. Nature of the series: Western blot for Zta and H3-ac in Burkitt lymphoma cell lines. The format is cell-based, human. As to conditions: naturally infected Burkitt lymphoma cell lines. As for the experimental part: as §1
(§2) CXD101 is currently undergoing clinical trials (Eyre, T. A., et al. (2019). Cancer 125, 99-108.), and chidamide is approved in China by the National Medical Products Administration (NMPA) for treatment of peripheral T-cell lymphoma (Xu, Y., et al. (2017). Drugs of Today; 53.) and breast cancer (Jiang, Z., et al. (2018). Annals of Oncology; 29.). Therefore, chidamide and CXD101 were used to treat naturally-infected Burkitt lymphoma cell lines Namalwa, Raji, and Akata, or the ex vivo infected lymphoblastoid cell line PD-LCL in parallel with YCCEL1 cells. Romidepsin was used to treat the same panel of cells. […] Zta expression level in ex vivo infected B cell line PD-LCL is detectable in DMSO treated cells and it is not affected after HDACi treatment. All HDACis used induced detectable amounts of H3-ac, with cell line-dependent variation (FIG. 1E). To assess the extent of EBV reactivation, mRNA expression of several immediate-early, early, and late lytic genes was analysed (FIG. 9E). […] Up to 5-10% of YCCEL1 and SNU719 cells were positive for late Viral Capsid Antigen (VCA) after chidamide or CXD101 treatment, but not SAHA-treatment. […] Both benzamide- and hydroxymate-based HDACi can induce EBV reactivation in gastric epithelial cancer cells, but benzamide-based HDACis are generally less toxic than hydroxymate-based HDACi.

In series [6] the test system is PBMCs from an EBV+ healthy donor. Nature of the series: IFNγ ELISpot of ex vivo EBV-specific CD8+ T cell responses. Conditions: PBMCs with pool of EBV epitopes, 12 hours; range of doses. It is filed as cell-based, human. The text has this: To be able to effectively “kick” EBV+GC cells into Zta+ abortive EBV reactivation lytic cycle presented us with an opportunity to “kill” the reactivated EBV+ cancer cells by harnessing the host's immune system, Zta specific T cells in particular as Zta is highly immunogenic (Pudney, V. A., et al. (2005). J Exp Med 201, 349-360) and many EBV seropositive individuals have Zta memory T cells. This study was set out to test whether HDACi have any direct impacts on CD8+ T cell responses to EBV viral antigens. Peripheral blood mononuclear cells (PBMCs) from an EBV+ healthy donor were stimulated with a pool of pre-determined EBV epitopes in the presence or absence of HDACi for 12 hours, and ex vivo EBV-specific CD8+ T cell responses were determined by an IFNγ ELISpot assay. […] In parallel, the optimal dose of each HDACi for AGS-EBV to minimize cell toxicity versus their ability to induce Zta expression was determined (FIG. 15A). To provide a proof of principle, whether reactivation of Zta by HDACi could sensitize tumor cells for recognition and killing by Zta-specific CD8+ T cells was subsequently tested. […] The TCR gene was retrovirally transduced into a TCR-negative T cell line (SKW3) or primary human CD8+ T cells for functional readouts, including cytokine production and killing of the tumor cells.

In series [7] the test system is YCCEL1 cells. The format is cell-based, human.
The subject of series [8] is PD-LCL cells. Nature of the series: Western blot for Zta in lymphoblastoid cell line. The format is cell-based, human. Conditions: detectable in DMSO treated cells. As for the experimental part: as §1, §2
Series [9] relates to YCCEL1 cells. Nature of the series: High content imaging of Zta-positive cells (immunofluorescence).
Method: Cells were seeded on 13 mm coverslips or 96 well-plates 24 h prior to the treatment. After washing with PBS, cells were fixed by the addition of 4% formaldehyde (Life Technologies) in PBS for 10 min, washed three times with PBS, and incubated with 0.1% Triton X-100 for 20 min. After three more washes, coverslips were incubated with Signal Enhancer for 30 min. Following one wash, cells were incubated with the primary antibody diluted in antibody diluent (Dako) with a background reducing agent for 90 min. After washing three times, coverslips were incubated with a secondary antibody solution containing DAPI diluted in antibody diluent for 1 h in the dark. Coverslips were washed three times with PBS and once in purified water before coverslips were mounted on Polysine Microscope Adhesion slides with ProLong Gold Antifade Mountant (Life Technologies). Cells affixed on slides were visualized using a Zeiss LSM 710 laser scanning confocal microscope, while cells on 96 well plates were visualized using the Operetta High Content Screening System (PerkinElmer).
Experiments were run in duplicate. Liquid handling for cell plating, drug treatment, and cell fixation was performed using a JANUS PerkinElmer Automated Workstation (PerkinElmer). […] All other staining steps were performed with a FlexDrop PLUS (PerkinElmer). Cells were visualized using a GE IN Cell Analyzer 6000 (GE Healthcare Life Sciences) with a 10× objective. Percentages of Zta-positive cells within the wells were assessed with a protocol established within the Columbus software (PerkinElmer).
The readout was percentage of cells positive for the immediate-early viral transcription factor Zta, as assessed by immunofluorescence staining and confocal microscopy.
Series [10] concerns NCC-24 cells. Nature of the series: Western blot for p53 and Zta. It is filed as cell-based, human. Conditions: NCC-24, mutant TP53 (G266R and R273H).

As for `O=C(CCCCCCC(=O)Nc1ccccc1)NO` [SAHA], in series [1], the “cell death of AGS-EBV cells” value is reported as “dramatic increase in cell death”. In addition, the “activation of lytic genes” value in series [2] is “comparable activation of lytic genes”. Also, in [3], the “induction of Zta expression (Western blot)” value is reported as “failure” and the “total histone 3 acetylation (H3-ac)” value is “induced detectable H3-ac”. Also, the Zta expression entry in series [4] is given as “strong activation of Zta expression”.

In the case of `Cc1nn(C)cc1CN1CCC(c2ccc(C(=O)Nc3ccccc3N)cc2)CC1` [CXD101], the “toxicity induced by T cells” value in series [1] (AGS-EBV, compared to SAHA (P<0.01)) is given as “more pronounced”. The “cell death of AGS-EBV cells” value in series [1] was “dramatic increase in cell death”. Moreover, the Zta expression entry in series [5] is recorded as “none of these HDACi induced Zta expression”; in series [4], “strong activation of Zta expression”. In addition, in series [2], the “activation of lytic genes” value is given as “comparable activation of lytic genes”. Further, the “effect on T cell responses to EBV antigens” value in series [6] is reported as “little, if any, inhibitory effect”. The “toxicity (cell number relative to DMSO)” value in series [7] was “low toxicity”. In series [8], the Zta expression level entry is “not affected”. In addition, the “Zta+ cells” value in [9] (5 μM) stood at 36.5%; in series [9] (10 μM) it was 40.7%. Moreover, in [9] (increasing concentrations (FIG. 1B)), the “Zta expression / EBV reactivation” value is on record as “strong dose-dependent effect on Zta expression”.

As for `COc1ccc(C2=N[C@@H](c3ccc(Cl)cc3)[C@@H](c3ccc(Cl)cc3)N2C(=O)N2CCNC(=O)C2)c(OC(C)C)c1` [nutlin-3a], the “Zta expression (Western blot)” value in [4] (agent alone) is recorded as “able to induce high levels of Zta expression”. In addition, in series [10], the Zta expression result is reported as “failed to express Zta”.
